Test results taken from patent US8618284B2 (Wyeth LLC, priority 2008, dated 2013).
One block for each compound: values may come before it.

Key:
[1] = Granulation effect on the polymorphic transformation of Form A; format: physicochemical; conditions: dry industrial batch of Form A; for % Form B after granulation: after industrial granulation; for % Form B prior to granulation: before industrial granulation
[2] = tested on: MCF-7 cell line (human breast cancer cell line); conditions: cited from earlier work
[3] = tested on: preclinical models of uterine stimulation; conditions: cited from earlier work
[4] = tested on: ovariectomized rat model of osteopenia; conditions: cited from earlier work
[5] = in some drug formulations; cited from earlier work
[6] = upon contact with a solvent or solvent mixture (e.g., ethyl acetate and ethanol); cited from earlier work
[7] = aqueous and organic solvent systems, Form A compared with Form B; cited from earlier work

- % Form B after granulation ([1]; listed as 8.4): 0.2%
- % Form B prior to granulation ([1]; listed as 8.4): 0.3%
SMILES: Cc1c(-c2ccc(O)cc2)n(Cc2ccc(OCCN3CCCCCC3)cc2)c2ccc(O)cc12 [batch 8.4]

- % Form B after granulation ([1]; listed as 8.6): 0.1%
SMILES: Cc1c(-c2ccc(O)cc2)n(Cc2ccc(OCCN3CCCCCC3)cc2)c2ccc(O)cc12 [batch 8.6]

Continued, compound first:

SMILES: Cc1c(-c2ccc(O)cc2)n(Cc2ccc(OCCN3CCCCCC3)cc2)c2ccc(O)cc12 [batch 8.5]
- % Form B after granulation ([1]; listed as 8.5): 0.6%
- % Form B prior to granulation ([1]; listed as 8.5): 0.5%

SMILES: Cc1c(-c2ccc(O)cc2)n(Cc2ccc(OCCN3CCCCCC3)cc2)c2ccc(O)cc12 [bazedoxifene acetate, 1-[4-(2-azepan-1-yl-ethoxy)-benzyl]-2-(4-hydroxy-phenyl)-3-methyl-1H-indol-5-ol acetic acid]
- estrogen antagonist behaviour [2]: behaves as an estrogen antagonist
- stimulation of uterine response [3]: little or no stimulation of uterine response
- effect in preventing bone loss and reducing cholesterol [4]: estrogen agonist-like effect

SMILES: Cc1c(-c2ccc(O)cc2)n(Cc2ccc(OCCN3CCCCCC3)cc2)c2ccc(O)cc12 [batch 8.7]
- % Form B after granulation ([1]; listed as 8.7): 0.2%
- % Form B prior to granulation ([1]; listed as 8.7): 0.3%

SMILES: Cc1c(-c2ccc(O)cc2)n(Cc2ccc(OCCN3CCCCCC3)cc2)c2ccc(O)cc12 [Form A, 1-[4-(2-azepan-1-yl-ethoxy)-benzyl]-2-(4-hydroxy-phenyl)-3-methyl-1H-indol-5-ol acetic acid]
- bioavailability [5]: better bioavailability
- conversion of Form A to Form B [6]: can easily convert to Form B
- solubility [7]: higher solubility
